Consider 4 compounds from patent US9198845B2, “Glutamine derivatives as deodorants” (Givaudan S.A., priority 2010, dated 2015).

Type in all cases: cell-based
The subject of experiment [1] is Corynebacterium Ax 20. The experiment can be described thus: Inhibition of release of 3-hydroxy-3-methyl-hexanoic acid from Nα-(3-hydroxy-3-methyl-hexanoyl)-glutamine by bacterial cells (GC-analysis). The note with it: for inhibition at 100 ppm / inhibition at 10 ppm / inhibition at 500 ppm / inhibition at 1000 ppm: Corynebacterium; for efficacy as inhibitors: general statement in the description; for inhibitory activity compared to compound II: relative to compound II; for inhibition of malodour release: Compound Ia; for inhibition at 500 ppm: 500 ppm test compound; for inhibition at 1000 ppm: 1000 ppm test compound; for kind of inhibition (true inhibitor or alternative substrate): conclusion from Tables 1 and 2, prolonged preincubation; for IC 50 (Concentration for 50% inhibition of malodour release): estimated from the data in Table 1. Here is the method:
(§1) Corynebacterium Ax 20 was grown overnight, harvested and resuspended in a phosphate buffer (50 mM, pH 7.5). Different compounds were dissolved in dimethylsulfoxide and added to the cells at a final concentration of 10 ppm, 100 ppm 500 ppm and 1000 ppm. The cells were then preincubated with the test agent for 30 min, 4 h, 8 h or 24 h. After this pre-incubation period, the natural substrate Nα-(3-hydroxy-3-methyl-hexanoyl)-glutamine was added (1 mM final concentration) and the cells were further incubated for 90 min. The released 3-hydroxy-3-methyl-hexanoic acid was determined by GC-analysis and compared to control samples to assess the […] malodor reducing capacity of a given compound in the bacterial cells. The samples were then further analysed to determine the cleavage of the synthetic compound by the action of the bacterial enzymes.

The test system of experiment [2] is Ax73. As to the kind of experiment: Inhibition of release of 3-hydroxy-3-methyl-hexanoic acid in different bacterial species. The note with it: Corynebacterium coyleae. On the procedure:
as §1, with “The cells were then preincubated with the test agent for 30 min, 4 h, 8 h or 24 h.” left out
(§2) The inhibition of malodour release was tested on different bacterial species, all isolated from the human axilla. The method from Example 2 was used.

Experiment [3] deals with Ax52. Described as above. The note with it: Corynebacterium mucifaciens. On the procedure:
as §1, with “The cells were then preincubated with the test agent for 30 min, 4 h, 8 h or 24 h.” left out
as §2

Experiment [4] concerns Ax30. Described as above. The note with it: Arthrobacter woluwensis. On the procedure: as §1, with “The cells were then preincubated with the test agent for 30 min, 4 h, 8 h or 24 h.” left out
as §2

In experiment [5] the test system is Ax20, Ax30, Ax43, Ax52, Ax73. As to the kind of experiment: Inhibition of release of 3-hydroxy-3-methyl-hexanoic acid, average over bacterial species. The note with it: for inhibition at 10 ppm / inhibition at 100 ppm: average of Ax20, Ax30, Ax43, Ax52, Ax73. Here is the method: as §1, with “The cells were then preincubated with the test agent for 30 min, 4 h, 8 h or 24 h.” left out
as §2

The test system of experiment [6] is Ax43. As to the kind of experiment: Inhibition of release of 3-hydroxy-3-methyl-hexanoic acid in different bacterial species. Particulars: Corynebacterium tuberculostearicum. Here is the method: as §1, §2
[7] abbreviates: AX20, 100 ppm test compound, method of example 2, preincubation time not stated, read-out: % Inhibition of release of 3-hydroxy-3-methyl-hexanoic acid (100 ppm test compound).
Setting [8] is: AX20, preincubation 0.5 h, 10 ppm test compound, read-out: % inhibition of the release of 3-hydroxy-3-methyl-hexanoic acid.
Setting [9] is: AX20, preincubation 0.5 h, 100 ppm test compound, read-out: % inhibition of the release of 3-hydroxy-3-methyl-hexanoic acid.
Setting [10] is: AX20, preincubation 4 h, 10 ppm test compound, read-out: % inhibition of the release of 3-hydroxy-3-methyl-hexanoic acid.
Setting [11] is: AX20, preincubation 4 h, 100 ppm test compound, read-out: % inhibition of the release of 3-hydroxy-3-methyl-hexanoic acid.
Where [12] appears, read: AX20, preincubation 8 h, 10 ppm test compound, read-out: % inhibition of the release of 3-hydroxy-3-methyl-hexanoic acid.
[13] abbreviates: AX20, preincubation 8 h, 100 ppm test compound, read-out: % inhibition of the release of 3-hydroxy-3-methyl-hexanoic acid.
[14] abbreviates: AX20, preincubation 24 h, 10 ppm test compound, read-out: % inhibition of the release of 3-hydroxy-3-methyl-hexanoic acid.
Setting [15] is: AX20, preincubation 24 h, 100 ppm test compound, read-out: % inhibition of the release of 3-hydroxy-3-methyl-hexanoic acid.

The structures appear in SMILES notation. Where two headings read alike, the source gives them in different places. Bounds are passed on as bounds.

A word on the inhibition: it is the drop in the measured response relative to a control, in per cent. For the compound `NC(=O)CC[C@H](NC(=O)Nc1cccc(Cc2ccccc2)c1)C(=O)O` [Example 1c, N2-[(3-benzylphenylamino)carbonyl]-L-glutamine], the inhibition at 100 ppm in experiment [1] (setting [7]) amounted to 71%.

In the case of `NC(=O)CC[C@H](NC(=O)NCc1ccccc1)C(=O)O` [Compound Ib, N2-[(benzylamino)carbonyl]-L-glutamine], the inhibition at 100 ppm in experiment [1] (setting [7]) turned out to be 61%. Moreover, in experiment [1], the efficacy as inhibitors result is reported as “particularly good efficacy as inhibitors”.

Consider `CCCCC(CC)CNC(=O)N[C@@H](CCC(N)=O)C(=O)O` (stereo partly drawn) [Compound Ia, N2-[(2-ethylhexylamino)carbonyl]-L-glutamine], for which the inhibition at 10 ppm stood at 107% in experiment [2] (preincubation 0.5 h); 70% in experiment [2] (preincubation 2 h); 77% in experiment [3] (preincubation 0.5 h); 86% in experiment [3] (preincubation 2 h); 95% in experiment [4] (preincubation 0.5 h); 93% in experiment [4] (preincubation 2 h). Besides, the inhibition at 10 ppm in experiment [5] (preincubation 0.5 h) stood at 84.6%; in experiment [5] (preincubation 2 h), 79.2%; in experiment [6] (preincubation 0.5 h) it was 93%; in experiment [6] (preincubation 2 h), 97%; in experiment [1] (AX20, Ax20, preincubation 0.5 h, 10 ppm, read-out: % inhibition of release of 3-hydroxy-3-methyl-hexanoic acid), 51%; in experiment [1] (AX20, Ax20, preincubation 2 h, 10 ppm, read-out: % inhibition of release of 3-hydroxy-3-methyl-hexanoic acid) it was 50%. Further, the inhibition at 10 ppm came out at 61% in experiment [1] (AX20, Compound Ia, 10 ppm alone (Cosmocil CQ 0 ppm), read-out: inhibition of malodour release); 61% in experiment [1] (setting [8]); 52.2% in experiment [1] (setting [10]); 65.2% in experiment [1] (setting [12]); 19.9% in experiment [1] (setting [14]). Moreover, the inhibition at 100 ppm in experiment [2] (preincubation 0.5 h) amounted to 87%; in experiment [2] (preincubation 2 h) it was 94%; in experiment [3] (preincubation 0.5 h), 83%; in experiment [3] (preincubation 2 h), 94%; in experiment [4] (preincubation 0.5 h), 100%; in experiment [4] (preincubation 2 h) it was 100%. Moreover, the inhibition at 100 ppm in experiment [5] (preincubation 0.5 h) is 89.6%; in experiment [5] (preincubation 2 h), 94.6%; in experiment [6] (preincubation 0.5 h), 97%; in experiment [6] (preincubation 2 h), 99%; in experiment [1] (setting [7]), 79.8%; in experiment [1] (AX20, Ax20, preincubation 0.5 h, 100 ppm, read-out: % inhibition of release of 3-hydroxy-3-methyl-hexanoic acid), 81%. The inhibition at 100 ppm in experiment [1] (AX20, Ax20, preincubation 2 h, 100 ppm, read-out: % inhibition of release of 3-hydroxy-3-methyl-hexanoic acid) is 86%; in experiment [1] (AX20, Compound Ia, 100 ppm alone (Cosmocil CQ 0 ppm), read-out: inhibition of malodour release), 75.8%; in experiment [1] (setting [9]), 75.8%; in experiment [1] (setting [11]), 81.2%; in experiment [1] (setting [13]), 86%; in experiment [1] (setting [15]), 83.2%. Also, the “activity in different bacterial species” value in experiment [5] (conclusion from Table 4) is given as “active in all bacterial species”. The entries for the “inhibitory activity compared to compound II” value in experiment [1] (0.5 h preincubation time) and in experiment [1] (8 h preincubation time) were greater than 25 fold and greater than 100 times, respectively. Besides, the “inhibition of malodour release” value is reported as 58.8 in experiment [1] (10 ppm combined with Cosmocil CQ 100 ppm); 75.6 in experiment [1] (10 ppm combined with Cosmocil CQ 200 ppm); 85.2 in experiment [1] (10 ppm combined with Cosmocil CQ 500 ppm); 85.9 in experiment [1] (100 ppm combined with Cosmocil CQ 100 ppm); 95.6 in experiment [1] (100 ppm combined with Cosmocil CQ 200 ppm). Also, the inhibition at 500 ppm in experiment [1] (AX20, preincubation 0.5 h) amounted to 92.4%; in experiment [1] (AX20, preincubation 4 h), 100%; in experiment [1] (AX20, preincubation 8 h) it was 100%; in experiment [1] (AX20, preincubation 24 h), 100%. Also, the inhibition at 1000 ppm in experiment [1] (AX20, preincubation 0.5 h) was determined as 92.5%; in experiment [1] (AX20, preincubation 4 h), 91.5%; in experiment [1] (AX20, preincubation 8 h), 91.8%; in experiment [1] (AX20, preincubation 24 h), 89.6%. In experiment [1], the “kind of inhibition (true inhibitor or alternative substrate)” value is listed as “true inhibitor”. For the same compound, in experiment [1], the efficacy as inhibitors entry was “particularly good efficacy as inhibitors”. Also, the “IC 50 (Concentration for 50% inhibition of malodour release)” value is recorded as less than 10 ppm in experiment [1] (preincubation time 0.5 h), less than 10 ppm in experiment [1] (preincubation time 4 h), less than 10 ppm in experiment [1] (preincubation time 8 h) and 52.8 ppm in experiment [1] (preincubation time 24 h).

As to `CCCCC(CC)COC(=O)N[C@@H](CCC(N)=O)C(=O)O` (stereo partly drawn) [Compound II, reference compound], the inhibition at 10 ppm was 2.8% in experiment [1] (setting [8]), -4.4% in experiment [1] (setting [10]), 8.3% in experiment [1] (setting [12]) and -1% in experiment [1] (setting [14]). Further, the inhibition at 100 ppm is 33.4% in experiment [1] (setting [9]), -25.2% in experiment [1] (setting [11]), -9.8% in experiment [1] (setting [13]) and -13.3% in experiment [1] (setting [15]). For the same compound, the inhibition at 500 ppm is 76.6% in experiment [1] (AX20, preincubation 0.5 h); 59.9% in experiment [1] (AX20, preincubation 4 h); -5.6% in experiment [1] (AX20, preincubation 8 h); -28.8% in experiment [1] (AX20, preincubation 24 h). In addition, the inhibition at 1000 ppm in experiment [1] (AX20, preincubation 0.5 h) is 83%; in experiment [1] (AX20, preincubation 4 h) it was 79.5%; in experiment [1] (AX20, preincubation 8 h), 41.3%; in experiment [1] (AX20, preincubation 24 h), -23.1%. For the same compound, the “kind of inhibition (true inhibitor or alternative substrate)” value in experiment [1] is “alternative substrate”. In addition, the “IC 50 (Concentration for 50% inhibition of malodour release)” value in experiment [1] (preincubation time 0.5 h) is given as 253.3 ppm; in experiment [1] (preincubation time 4 h) it was 387.2 ppm; in experiment [1] (preincubation time 8 h), greater than 1000 ppm; in experiment [1] (preincubation time 24 h), >>1000 ppm.
